Here are results for one compound from patent US20220023258A1, “METHODS OF TREATING CONDITIONS RELATED TO THE S1P1 RECEPTOR” (Arena Pharmaceuticals, Inc., priority 2018, published 2022).

Structures are written as SMILES.

The test system of data set [1] is peripheral blood lymphocyte (PBL) counts. Description: Phase 1 single dose study: peripheral blood lymphocyte counts. It is filed as in vivo, human. The method, then:
Compound 1 was administered as the L-arginine salt.

Data set [2] relates to subjects. Briefly: Phase 1 single dose study: safety and tolerability. The method, then:
A phase 1 study with Compound 1 was conducted with single dosing at 0.1 mg, 0.35 mg, 1 mg, 3 mg, and 5 mg. Compound 1 was administered as the L-arginine salt.

Data set [3] has as its system male Sprague-Dawley rats. As to conditions: see WO2010/011316, Example 9; cited from earlier work.

As to `O=C(O)C[C@H]1CCc2c1[nH]c1ccc(OCc3ccc(C4CCCC4)c(C(F)(F)F)c3)cc21` [Compound 1, (R)-2-(7-(4-cyclopentyl-3-(trifluoromethyl)benzyloxy)-1,2,3,4-tetrahydrocyclopenta[b]indol-3-yl)acetic acid], the PBL counts reduced in data set [1] (single dose 3 mg) is roughly 40%. In data set [1] (single dose 5 mg), this compound returned a PBL counts reduced of roughly 55%. In data set [1] (single dose 3 and 5 mg), the “absolute number of peripheral blood B cells, T cells, NK cells, and all T cell subsets except TEM cells” value is “dose responsive decline”. For the same compound, in data set [1] (single dosing), the “persistence of PBL nadir” value is 24 h, the “time after dosing by which total PBL counts were reduced” value was in the range of 2 to 4 h and the “time of nadir of total PBL counts” value is no more than 8 h. Further, in data set [1] (single dosing, after nadir period), the “recovery of PBL counts to baseline” value was 4 days. For the same compound, the “other safety issues (vital signs, ECGs, pulmonary function tests, ophthalmoscopy, clinical laboratory tests)” value in data set [2] (in vivo) is recorded as “no other clinically significant safety issues”. Further, the maximum tolerated dose in data set [2] (single dosing) is 3 mg. Also, the “deaths or serious adverse events” value in data set [2] (single dosing 0.1-5 mg) is “no deaths or serious adverse events”. In addition, in data set [3], the bradycardia entry is recorded as “no or substantially no bradycardia”.
